Earlier results in patent US10696827B2, “Polyolefin composition comprising an antimicrobial additive” (SABIC GLOBAL TECHNOLOGIES B.V., priority 2015, dated 2020).

Test system: Staphylococcus aureus
Settings: >0.4% of additive in LDPE catheter, rabbits, subcutaneous

Compound: CCCCCCc1ccc(O)cc1O [4-n-hexyl resorcinol]
- infection: little to no infection
